Test results: patent publication US10385061B2, “Medicarpin, its derivatives, manufacturing method thereof” (PhytoHealth Corporation, priority 2016, dated 2019)
Like-named read-outs stand apart in the source and are kept apart here.

Tests used:
[1] = test system: erythroid progenitor cells; assay: Hemoglobin colorimetric assay of bone marrow cells (erythroid progenitor differentiation); format: cell-based, mouse; settings: low concentration (0.1 to 10 μg/mL), 96 hours, A610
Description: C57BL/6J male mice (6 weeks old) were used in this Example to collect bone marrow cells. The hind legs were of mice were obtained to remove excess flesh from the leg bone and cut off the ends of the bones. The bones were flushed with α-MEM medium using 23-gauge needle to elute bone marrow cells, and then filtrated by No. 53 nylon mesh filter to obtain the bone marrow cells solution.
96-well plates (U-bottom shape) were centrifuged at 1200 rpm (Kubota 6800) at 25° C. for 5 minutes. After centrifugation, the supernatant was removed and the bone marrow cells were mixed equally with 50 μL lysis buffer (0.01% NP-40) for 10 minutes. Then, 150 μL of 500 μM DAF (2,7-Diaminofluorene, Sigma-Aldrich) solution and 6 μL of 30% H2O2 were added and treated with the bone marrow cells for 5 minutes, and absorbance at 610 nm (A610) was determined. Student's t-test were used to compare data.

[2] = test system: cisplatin-induced nephropathic mice; assay: Cisplatin-induced nephropathic mice model; format: in vivo
Description: C57BL/6J male mice (8 to 10 weeks old) were injected i.p. (Intraperitoneal) with three doses of cisplatin (CDDP) (Sigma-Aldrich), following the scheme of 7, 6 and 7 mg/kg body weight, at 1, 5, 10 day, and the normal group (n=6) was injected with saline. On day 12, serum samples were collected and assayed for blood urea nitrogen content (BUN). Mice with BUN values greater than 100 mg/100 mL were chosen for the experiment. […] The mice were (BUN=80-300 mg/dL) subsequently divided randomly into four cohorts comprising the control and three medicarpin-treated groups, medicarpin 10, 30, 90 mg/kg/day (CDDP+Med 10, CDDP+Med 30, CDDP+Med 90) (n=6 for each group) for an additional 2 weeks. Blood samples from all the mice were collected on day 12. The red blood cell (RBC) numbers were determined from the complete blood cell count using a Sysmex Kx-21 haematology analyser (Sysmex America Inc., Mundelein, Ill., USA), and the serum BUN levels were determined through the urease GLDH method using a commercial kit (DiaSys Diagnostic System GmbH, Frankfurt, Germany). The administration and blood collection schedules were carried out according to the FIG. 4. […] However, the number of RBC in control group without medicarpin treatment was still low. […] The number of WBCs was recovered in the mice after 2 week of medicarpin treatment. […] Similarly, the number of platelet (PLT) also was decreased by cisplatin. […] (FIG. 5D).
One month after treatment of medicarpin, the expression of EPO was increased in liver (FIG. 7A) and kidney (FIG. 7B) of mice.

[3] = test system: doxorubicin-induced mice; assay: Treadmill endurance assessment under normoxic or hypoxic conditions; format: in vivo; settings: 3 weeks administration, normoxic and hypoxic (8% O2) conditions, dose-dependent
Description: Before being divided into treatment groups, 8 to 10 week-old C57B1/6J male mice were trained on a treadmill for a maximum of 10 min for each of three consecutive training sessions per day for 3 days. […] On the testing day, each mouse was subjected to three trials on the treadmill at under a normoxic or hypoxic (8% O2) atmosphere. The endurance performance was measured over time until the mice suffered from electric shock over 35 times/min (electric shock system is on the end of the treadmill). The maximum trial length was 60 min and there was a 30-min rest period between each trial. (Table 2)

[4] = test system: dox-induced cardiomyopathic mice; settings: for EF (Ejection fraction) / FS (Fractional shortening) / IVS; d / IVS; s / LVID; d / LVID; s / LVPW; d / LVPW; s: week 3, mean±SEM
Description: C57BL/6J male mice (6 to 8 weeks old) were injected intraperitoneally with triple dose of 5, 5, or 8 mg/kg doxorubicin-HCl (Sigma-Aldrich), respectively. In control group, the mice (n=6) were injected intraperitoneally with saline. 1 week after injection, the degree of heart failure was determined by the increase of S-T segment in electrocardiogram, and then the mice were randomly reclassified into the control group (Dox/Ctrl, n=9) and experimental group (Dox+Med) (FIG. 9). In the experimental group, the mice were fed a diet containing 10, 30, or 90 mg/kg/day medicarpin, respectively. Each experiment group consisted of 7 mice. After feedings, the mice were subjected to the rotarod endurance test, echocardiography and electrocardiogram.
The mice from all treatment groups were anaesthetized with isoflurane (0.75-1.5% inhalation); and echocardiographic measurements were taken in M-mode in triplicate for each mouse using an ATL HDI 5000 ultrasound system (Philips Medical Systems, ATL Ultrasound, Bothell, Wash., USA).

Substance: (+)-Medicarpin
- differentiation of erythroid progenitor cells [1]: enhanced
- BUN levels ([2]; 30 and 90 mg/kg treatment groups): significantly recovered
- recovery of anaemia (RBC number) ([2]; 30 and 90 mg/kg, day 33): almost complete recovery
- white blood cell (WBC) number ([2]; 30 and 90 mg/kg, week 3 to 4): significant recovery
- renal function ([2]; 30 or 90 mg/kg): accelerated the recovery
- amount of hemoglobin and number of functional RBC ([2]; high-middle dose): increased
- renal function ([2]; low-dose 10 mg/kg): could not improve
- HGF expression in liver ([2]; one month after treatment): increase
- expression of EPO in liver and kidney ([2]; one month after treatment): increased
- number of platelet (PLT) ([2]; vs CDDP/Ctrl group after its recovery from cisplatin): no significant difference
- endurance performance to exhaustion [3]: enhanced
- prolonged S-T interval ([4]; 90 mg/kg/day, one week after treatment, electrocardiogram): improved
- ejection fractions and fractional shortening ([4]; 30 and 90 mg/kg, vs doxorubicin alone): significantly greater
- EF (Ejection fraction) ([4]; Dox + Med10 (10 mg/kg/day)): 58.44 ± 2.55%
- FS (Fractional shortening) ([4]; Dox + Med10 (10 mg/kg/day)): 30.32 ± 1.56%
- IVS; d ([4]; Dox + Med10 (10 mg/kg/day)): 0.85 ± 0.03 mm
- IVS; s ([4]; Dox + Med10 (10 mg/kg/day)): 1.20 ± 0.03 mm
- LVID; d ([4]; Dox + Med10 (10 mg/kg/day)): 3.70 ± 0.34
- LVID; s ([4]; Dox + Med10 (10 mg/kg/day)): 2.58 ± 0.27
- LVPW; d ([4]; Dox + Med10 (10 mg/kg/day)): 0.69 ± 0.10
- LVPW; s ([4]; Dox + Med10 (10 mg/kg/day)): 1.00 ± 0.07
- EF (Ejection fraction) ([4]; Dox + Med30 (30 mg/kg/day)): 75.07 ± 2.29%
- FS (Fractional shortening) ([4]; Dox + Med30 (30 mg/kg/day)): 43.04 ± 2.03 %
- IVS; d ([4]; Dox + Med30 (30 mg/kg/day)): 0.81 ± 0.04 mm
- IVS; s ([4]; Dox + Med30 (30 mg/kg/day)): 1.19 ± 0.02 mm
- LVID; d ([4]; Dox + Med30 (30 mg/kg/day)): 3.33 ± 0.07
- LVID; s ([4]; Dox + Med30 (30 mg/kg/day)): 1.89 ± 0.06
- LVPW; d ([4]; Dox + Med30 (30 mg/kg/day)): 0.74 ± 0.04
- LVPW; s ([4]; Dox + Med30 (30 mg/kg/day)): 1.26 ± 0.07
- EF (Ejection fraction) ([4]; Dox + Med90 (90 mg/kg/day)): 72.92 ± 2.72%
- FS (Fractional shortening) ([4]; Dox + Med90 (90 mg/kg/day)): 41.19 ± 2.07 %
- IVS; d ([4]; Dox + Med90 (90 mg/kg/day)): 0.86 ± 0.05 mm
- IVS; s ([4]; Dox + Med90 (90 mg/kg/day)): 1.29 ± 0.09 mm
- LVID; d ([4]; Dox + Med90 (90 mg/kg/day)): 3.30 ± 0.11
- LVID; s ([4]; Dox + Med90 (90 mg/kg/day)): 1.94 ± 0.12
- LVPW; d ([4]; Dox + Med90 (90 mg/kg/day)): 0.77 ± 0.06
- LVPW; s ([4]; Dox + Med90 (90 mg/kg/day)): 1.15 ± 0.08
- expression of EPO in kidney and heart ([4]; doxorubicin-induced mice): recovered and increased
- cardiomyocytes atrophy or hypertrophy, cytoplasmic vacuolization, myofibrillar loss, myocardial fibrosis (histology) ([4]; middle-high dosed treatment): significantly ameliorated
- left ventricular posterior wall thickness (LVPWs) ([4]; middle-high doses): increased
- influence to renal function ([4]; mouse, in vivo): no influence
- heart rate (beats per second) ([4]; three weeks after treatment): recovered to normal
